Reference: ChEMBL document CHEMBL3576835, “Design and synthesis of potent 1,2,4-trisubstituted imidazolinone derivatives with dual p38αMAPK and ERK1/2 inhibitory activity” (Eur J Med Chem, 2015)

What was measured:
[1] = biological target: Mitogen-activated protein kinase 14 (Homo sapiens, UniProt Q16539); assay: Inhibition of p38alpha MAP kinase (unknown origin) using GFP-ATF2 as substrate after 1 hr by TR-FRET assay
[2] = biological target: Mitogen-activated protein kinase 1 (Homo sapiens, UniProt P28482); assay: Inhibition of ERK2 (unknown origin) using GFP-ATF2 as substrate after 1 hr by TR-FRET assay
[3] = biological target: Mitogen-activated protein kinase 3 (Homo sapiens, UniProt P27361); assay: Inhibition of ERK1 (unknown origin) using GFP-ATF2 as substrate after 1 hr by TR-FRET assay
[4] = tested on: MCF7; assay: Antiproliferative activity against human MCF7 cells assessed as inhibition of cell vaibility after 72 hrs by MTT assay; type: functional, cell-based; settings: MCF7, 72 h
[5] = tested on: MDA-MB-435; assay: Antiproliferative activity against human MDA-MB-435 cells assessed as inhibition of cell vaibility after 72 hrs by MTT assay; type: functional, cell-based; settings: MDA-MB-435, 72 h
[6] = tested on: T47D; assay: Antiproliferative activity against human T47D cells assessed as inhibition of cell vaibility after 72 hrs by MTT assay; type: functional, cell-based
[7] = tested on: PC-3; assay: Antiproliferative activity against human PC3 cells assessed as inhibition of cell vaibility after 72 hrs by MTT assay; type: functional, cell-based; settings: PC-3, 72 h
[8] = tested on: HT-29; assay: Antiproliferative activity against human HT-29 cells assessed as inhibition of cell vaibility after 72 hrs by MTT assay; type: functional, cell-based; settings: HT-29, 72 h
[9] = tested on: K562; assay: Antiproliferative activity against human K562 cells assessed as inhibition of cell vaibility after 72 hrs by MTT assay; type: functional, cell-based; settings: K562, 72 h
[10] = Antiproliferative activity against human LOXIMVI cells assessed as inhibition of cell vaibility after 72 hrs by MTT assay; type: functional, cell-based; settings: LOX IMVI
[11] = Antiproliferative activity against human COLO205 cells assessed as inhibition of cell vaibility after 72 hrs by MTT assay; type: functional, cell-based; settings: COLO 205, 72 h
[12] = tested on: A549; assay: Antiproliferative activity against human A549 cells assessed as inhibition of cell vaibility after 72 hrs by MTT assay; type: functional, cell-based; settings: A549, 72 h
[13] = tested on: Vero; assay: Selectivity index, ratio of IC50 for African green monkey Vero cells to IC50 for human MDA-MB-435 cells; type: functional
[14] = tested on: Vero; assay: Cytotoxicity against African green monkey Vero cells assessed as inhibition of cell viability after 72 hrs by MTT assay; type: cell-based; settings: Chlorocebus sabaeus
[15] = tested on: A549; assay: Selectivity index, ratio of IC50 for African green monkey Vero cells to IC50 for human A549 cells; type: functional
[16] = tested on: MCF7; assay: Selectivity index, ratio of IC50 for African green monkey Vero cells to IC50 for human MCF7 cells; type: functional
[17] = tested on: Vero; assay: Selectivity index, ratio of IC50 for African green monkey Vero cells to IC50 for human LOXIMVI cells; type: functional
[18] = tested on: Vero; assay: Selectivity index, ratio of IC50 for African green monkey Vero cells to IC50 for human COLO205 cells; type: functional
[19] = tested on: Vero; assay: Selectivity index, ratio of IC50 for African green monkey Vero cells to IC50 for human PC3 cells; type: functional
[20] = tested on: HT-29; assay: Selectivity index, ratio of IC50 for African green monkey Vero cells to IC50 for human HT-29 cells; type: functional
[21] = tested on: T47D; assay: Selectivity index, ratio of IC50 for African green monkey Vero cells to IC50 for human T47D cells; type: functional

Sequence of Mitogen-activated protein kinase 1 (P28482 whole entry): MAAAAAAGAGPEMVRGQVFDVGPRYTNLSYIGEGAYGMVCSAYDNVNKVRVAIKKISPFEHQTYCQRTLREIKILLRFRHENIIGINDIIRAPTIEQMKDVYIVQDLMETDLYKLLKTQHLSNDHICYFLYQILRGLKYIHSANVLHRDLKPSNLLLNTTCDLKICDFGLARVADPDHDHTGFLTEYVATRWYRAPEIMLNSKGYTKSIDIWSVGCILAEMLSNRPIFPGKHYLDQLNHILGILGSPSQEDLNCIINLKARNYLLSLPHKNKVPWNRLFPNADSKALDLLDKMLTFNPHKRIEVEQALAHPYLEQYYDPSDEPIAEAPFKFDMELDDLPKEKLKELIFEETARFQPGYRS
Sequence of Mitogen-activated protein kinase 14 (Q16539 whole entry): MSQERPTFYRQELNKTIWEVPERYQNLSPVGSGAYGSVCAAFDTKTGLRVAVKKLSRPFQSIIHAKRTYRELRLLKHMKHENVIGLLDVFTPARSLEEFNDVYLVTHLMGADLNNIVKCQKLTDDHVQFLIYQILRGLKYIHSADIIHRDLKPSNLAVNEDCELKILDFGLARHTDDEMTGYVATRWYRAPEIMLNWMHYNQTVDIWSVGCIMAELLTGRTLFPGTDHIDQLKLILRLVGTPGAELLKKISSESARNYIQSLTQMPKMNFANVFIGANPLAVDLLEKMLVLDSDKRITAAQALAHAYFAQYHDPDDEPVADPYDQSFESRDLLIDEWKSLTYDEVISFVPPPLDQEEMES
Sequence of Mitogen-activated protein kinase 3 (P27361 whole entry): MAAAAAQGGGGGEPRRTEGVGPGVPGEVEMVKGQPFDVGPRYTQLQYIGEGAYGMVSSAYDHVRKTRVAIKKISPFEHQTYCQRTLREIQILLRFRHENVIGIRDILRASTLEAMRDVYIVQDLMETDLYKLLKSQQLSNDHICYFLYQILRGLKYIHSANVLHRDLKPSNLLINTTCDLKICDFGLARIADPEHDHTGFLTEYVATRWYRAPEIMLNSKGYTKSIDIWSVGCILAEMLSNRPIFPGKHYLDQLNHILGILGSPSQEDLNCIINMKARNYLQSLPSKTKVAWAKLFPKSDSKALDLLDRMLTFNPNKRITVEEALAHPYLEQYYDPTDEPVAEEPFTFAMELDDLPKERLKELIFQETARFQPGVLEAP

Structure (SMILES) | IC50 [1] | IC50 [2] | IC50 [3] | further results
COc1cccc(N2C(=O)/C(=C/c3ccc(OCC(=O)Nc4cccc(Cl)c4)cc3)N=C2c2ccccc2)c1 | 0.0037 µM | 0.0034 µM | 0.089 µM | –
COc1ccc(N2C(=O)/C(=C/c3ccc(OCC(=O)Nc4cccc(OC)c4)cc3)N=C2c2ccccc2)cc1 | 0.023 µM | 0.021 µM | 0.021 µM | –
COc1ccc(N2C(=O)/C(=C/c3ccc(OCC(=O)Nc4cccc(Cl)c4)cc3)N=C2c2ccccc2)cc1 | 0.0045 µM | 0.007 µM | 0.035 µM | –
CNC(=O)c1cc(Oc2ccc(NC(=O)Nc3ccc(Cl)c(C(F)(F)F)c3)cc2)ccn1 [SORAFENIB] | – | – | – | IC50 [4]: 0.78 µM; IC50 [5]: 1.67 µM; IC50 [6]: 0.61 µM; IC50 [7]: 4.13 µM; IC50 [8]: 0.39 µM; IC50 [9]: 1.22 µM; IC50 [10]: 4.25 µM; IC50 [11]: 0.87 µM; IC50 [12]: 3.19 µM
COc1ccc(NC(=O)COc2ccc(/C=C3\N=C(c4ccccc4)N(c4cccc(OC)c4)C3=O)cc2)cc1 | 0.0043 µM | 0.0043 µM | 0.076 µM | –
COc1cccc(N2C(=O)/C(=C/c3ccc(OCC(=O)Nc4ccccc4Cl)cc3)N=C2c2ccccc2)c1 | 0.0056 µM | 0.0053 µM | 0.087 µM | –
COc1ccc(N2C(=O)/C(=C/c3ccc(OCC(=O)Nc4cccc(C)c4)cc3)N=C2c2ccccc2)cc1 | 0.077 µM | 0.078 µM | 0.089 µM | –
COc1ccc(N2C(=O)/C(=C/c3ccc(OCC(=O)Nc4ccccc4Cl)cc3)N=C2c2ccccc2)cc1 | 0.0047 µM | 0.0035 µM | 0.024 µM | IC50 [4]: 0.53 µM; IC50 [5]: 0.05 µM; Ratio IC50 [13]: 264; IC50 [14]: 13.2 µM; IC50 [6]: 0.5 µM; Ratio IC50 [15]: 2.69; IC50 [7]: 0.99 µM; Ratio IC50 [16]: 24.9; IC50 [8]: 4.5 µM; Ratio IC50 [17]: 101.54; Ratio IC50 [18]: 2.93; IC50 [9]: > 100 µM; Ratio IC50 [19]: 13.33; Ratio IC50 [20]: 2.93; IC50 [10]: 0.13 µM; IC50 [11]: 4.5 µM; IC50 [12]: 4.9 µM; Ratio IC50 [21]: 26.4
COc1ccc(N2C(=O)/C(=C/c3ccc(OCC(=O)Nc4ccccc4OC)cc3)N=C2c2ccccc2)cc1 | 0.034 µM | 0.089 µM | 0.043 µM | –
COc1ccc(NC(=O)COc2ccc(/C=C3\N=C(c4ccccc4)N(c4ccc(OC)cc4)C3=O)cc2)cc1 | 0.345 µM | 0.0023 µM | 0.023 µM | –
COc1cccc(N2C(=O)/C(=C/c3ccc(OCC(=O)Nc4ccccc4)cc3)N=C2c2ccccc2)c1 | 0.035 µM | 0.054 µM | 0.065 µM | –
COc1ccc(N2C(=O)/C(=C/c3ccc(OCC(=O)Nc4ccc(Cl)cc4)cc3)N=C2c2ccccc2)cc1 | 0.044 µM | 0.0045 µM | 0.047 µM | –
COc1ccc(N2C(=O)/C(=C/c3ccc(OCC(=O)Nc4ccc(C)cc4)cc3)N=C2c2ccccc2)cc1 | 0.345 µM | 0.043 µM | 0.023 µM | –
COc1ccc(N2C(=O)/C(=C/c3ccc(OCC(=O)Nc4ccccc4C)cc3)N=C2c2ccccc2)cc1 | 0.056 µM | 0.023 µM | 0.032 µM | –
COc1cccc(N2C(=O)/C(=C/c3ccc(OCC(=O)Nc4ccccc4C)cc3)N=C2c2ccccc2)c1 | 0.066 µM | 0.044 µM | 0.043 µM | –
COc1cccc(N2C(=O)/C(=C/c3ccc(OCC(=O)Nc4cccc(C)c4)cc3)N=C2c2ccccc2)c1 | 0.087 µM | 0.043 µM | 0.02 µM | –
COc1ccc(N2C(=O)/C(=C/c3ccc(OCC(=O)Nc4ccccc4)cc3)N=C2c2ccccc2)cc1 | 0.354 µM | 0.023 µM | 0.023 µM | –
COc1cccc(N2C(=O)/C(=C/c3ccc(OCC(=O)Nc4ccccc4OC)cc3)N=C2c2ccccc2)c1 | 0.054 µM | 0.0047 µM | 0.046 µM | –
COc1cccc(N2C(=O)/C(=C/c3ccc(OCC(=O)Nc4ccc(C)cc4)cc3)N=C2c2ccccc2)c1 | 0.0045 µM | 0.0032 µM | 0.025 µM | IC50 [4]: 0.37 µM; IC50 [5]: 0.23 µM; Ratio IC50 [13]: 75.39; IC50 [14]: 17.3 µM; IC50 [6]: 0.67 µM; Ratio IC50 [15]: 2.66; IC50 [7]: 0.86 µM; Ratio IC50 [16]: 46.86; IC50 [8]: 5.8 µM; Ratio IC50 [17]: 22.81; Ratio IC50 [18]: 1.85; IC50 [9]: > 100 µM; Ratio IC50 [19]: 20.16; Ratio IC50 [20]: 2.98; IC50 [10]: 0.76 µM; IC50 [11]: 9.4 µM; IC50 [12]: 6.5 µM; Ratio IC50 [21]: 25.88
COc1cccc(NC(=O)COc2ccc(/C=C3\N=C(c4ccccc4)N(c4cccc(OC)c4)C3=O)cc2)c1 | 0.0065 µM | 0.0054 µM | 0.057 µM | –
COc1cccc(N2C(=O)/C(=C/c3ccc(OCC(=O)Nc4ccc(Cl)cc4)cc3)N=C2c2ccccc2)c1 | 0.0046 µM | 0.0046 µM | 0.095 µM | –
